In ChEMBL document CHEMBL1177772, “Design and synthesis of benzoazepin-2-one analogs as allosteric binders targeting the PIF pocket of PDK1” (Bioorg Med Chem Lett, 2010):
Residues, ends and D or L forms follow the SMILES beside them.

What follows are molecules tested against T1, 3-phosphoinositide-dependent protein kinase 1 (Homo sapiens, UniProt O15530) (assay: Displacement of PIFtide from His-tagged PDK1 by HTRF assay). Settings: not given; call rule not given here.
T1 sequence (O15530 whole entry): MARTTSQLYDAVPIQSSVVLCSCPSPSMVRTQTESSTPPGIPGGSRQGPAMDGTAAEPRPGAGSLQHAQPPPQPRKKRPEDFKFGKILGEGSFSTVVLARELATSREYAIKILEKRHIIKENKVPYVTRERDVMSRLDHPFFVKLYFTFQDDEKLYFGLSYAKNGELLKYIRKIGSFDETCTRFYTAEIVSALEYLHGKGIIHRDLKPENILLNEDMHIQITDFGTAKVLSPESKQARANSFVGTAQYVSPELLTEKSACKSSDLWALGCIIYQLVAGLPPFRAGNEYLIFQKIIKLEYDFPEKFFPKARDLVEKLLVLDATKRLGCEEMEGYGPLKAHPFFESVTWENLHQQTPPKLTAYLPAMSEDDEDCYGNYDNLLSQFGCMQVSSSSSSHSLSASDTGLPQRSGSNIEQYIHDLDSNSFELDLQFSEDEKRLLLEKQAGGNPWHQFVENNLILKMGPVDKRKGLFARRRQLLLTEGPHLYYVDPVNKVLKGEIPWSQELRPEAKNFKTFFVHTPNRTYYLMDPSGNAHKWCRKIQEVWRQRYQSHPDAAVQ

| EC50 | Structure (SMILES) |
| --- | --- |
| Not Active | O=C(O)CN1C(=O)C(Oc2ccccc2)CCc2ccccc21 (stereo unspecified) |
| Not Active | COC(=O)CN1C(=O)C(OC(=O)c2ccccc2)CCc2ccccc21 (stereo unspecified) |
| Not Active | COC(=O)CN1C(=O)C(Nc2ccccc2)CCc2ccccc21 (stereo unspecified) |
| Not Active | O=C(O)CN1C(=O)C(OC(=O)c2ccccc2)CCc2ccccc21 (stereo unspecified) |
| Not Active | COC(=O)CN1C(=O)C(NC(=O)c2ccccc2)CCc2ccccc21 (stereo unspecified) |
| Not Active | O=C(O)CN1C(=O)C(NC(=O)c2ccccc2)CCc2ccccc21 (stereo unspecified) |
| Not Active | COC(=O)CN1C(=O)C(NS(=O)(=O)c2ccccc2)CCc2ccccc21 (stereo unspecified) |
| Not Active | COC(=O)CN1C(=O)N(Cc2ccccc2)CCc2ccccc21 |
| Not Active | O=C(O)CN1C(=O)N(Cc2ccccc2)CCc2ccccc21 |
| Not Active | COC(=O)CN1C(=O)C(Oc2ccccc2)CCc2ccccc21 (stereo unspecified) |
| Not Active | COC(=O)CN1C(=O)C(Sc2ccccc2)CCc2ccccc21 (stereo unspecified) |
| Not Active | O=C(O)CN1C(=O)C(NS(=O)(=O)c2ccccc2)CCc2ccccc21 (stereo unspecified) |

Same assay, conditions: read-out: EC50

| EC50 | Structure (SMILES) |
| --- | --- |
| 53 µM | COc1ccc(SC2CCc3ccccc3N(CC(=O)O)C2=O)cc1 (stereo unspecified) |
| 900 µM | O=C(O)CN1C(=O)C(Nc2ccccc2)CCc2ccccc21 (stereo unspecified) |
| 101 µM | O=C(O)CN1C(=O)C(Sc2ccccc2)CCc2ccccc21 (stereo unspecified) |
| 45 µM | O=C(O)CN1C(=O)C(Sc2c(Cl)cccc2Cl)CCc2ccccc21 (stereo unspecified) |
| 187 µM | O=C(O)CN1C(=O)C(Sc2ccc(C(=O)O)cc2)CCc2ccccc21 (stereo unspecified) |
| 75 µM | O=C(O)CN1C(=O)C(Sc2ccc(Cl)cc2Cl)CCc2ccccc21 (stereo unspecified) |
| 23 µM | O=C(O)CN1C(=O)C(Sc2ccc(Cl)cc2)CCc2ccccc21 (stereo unspecified) |
| 133 µM | O=C(O)CSC(CC(=O)c1ccc(Cl)cc1)c1ccccc1 (stereo unspecified) |
| 10 µM | CC[C@H](C)[C@H](NC(=O)[C@H](Cc1ccc(O)cc1)NC(=O)[C@H](CC(=O)O)NC(=O)[C@H](Cc1ccccc1)NC(=O)[C@H](CC(=O)O)NC(=O)[C@H](CCCNC(=N)N)NC(=O)[C@H](Cc1ccccc1)NC(=O)[C@H](CCSC)NC(=O)[C@H](CCC(=O)O)NC(=O)[C@@H](N)CCC(N)=O)C(=O)N[C@@H](C)C(=O)N[C@@H](CC(=O)O)C(=O)N[C@@H](Cc1c[nH]c2ccccc12)C(=O)O (H-QEMFRDFDYIADW-OH) |
